In US20090227620A1, “ANTI-INFLAMMATORY COMPOUNDS” (priority 2005, published 2009):

Tests used:
[1] = system: irritant contact dermatitis elicited with tetradecanoylphorbol-13-acetate (TPA) on ears of mice; assay: Anti-Inflammatory Test System (TPA-elicited irritant contact dermatitis, mouse ear); type: in vivo, strain NMRI; settings: for anti-inflammatory activity (in words): mouse, in vivo; for inhibition in % (auricular weight, inflammatory swelling): topical 10 μl, 30 min before TPA, read 6 hours after
Protocol: The test sites on the inner surface of the right external ears of mice, e.g. strain NMRI, (8 per group) are treated with 10 μl of the dissolved test compound or with the vehicle (a 4:4:2 mixture of ethanol/acetone/dimethylacetamide) alone. The test compounds are applied at concentrations shown in the TEST RESULT TABLE. Thirty minutes after the treatment irritant contact dermatitis is elicited at the treated auricular sites with 10 μl 0.005% tetradecanoylphorbol-13-acetate (TPA). Skin inflammation is assessed 6 hours after the elicitation by determination of the auricular weights, as a measure of inflammatory swelling. The animals are killed and both ears are cut off and weighed. Inhibitory activity of test compounds is calculated from differences in right and left ears (internal controls) in mice treated with the test compounds compared with animals treated with the vehicle only. Results obtained are as set out in TEST RESULT TABLE below: In the TEST RESULT TABLE the concentrations of the compounds (in bold) used are indicated in micromol/litre. The values given in the TEST RESULT TABLE (in regular letters) are the inhibition in % determined according to the ANTI-INFLAMMATORY TEST SYSTEM used.

[2] = target: T1, purified human steroid sulfatase (Homo sapiens, UniProt P08842); assay: Assay of Human Steroid Sulfatase (4-methylumbelliferyl sulfate cleavage, fluorescence); settings: reference compound, determined in parallel to test compounds
T1 sequence (P08842 22-583): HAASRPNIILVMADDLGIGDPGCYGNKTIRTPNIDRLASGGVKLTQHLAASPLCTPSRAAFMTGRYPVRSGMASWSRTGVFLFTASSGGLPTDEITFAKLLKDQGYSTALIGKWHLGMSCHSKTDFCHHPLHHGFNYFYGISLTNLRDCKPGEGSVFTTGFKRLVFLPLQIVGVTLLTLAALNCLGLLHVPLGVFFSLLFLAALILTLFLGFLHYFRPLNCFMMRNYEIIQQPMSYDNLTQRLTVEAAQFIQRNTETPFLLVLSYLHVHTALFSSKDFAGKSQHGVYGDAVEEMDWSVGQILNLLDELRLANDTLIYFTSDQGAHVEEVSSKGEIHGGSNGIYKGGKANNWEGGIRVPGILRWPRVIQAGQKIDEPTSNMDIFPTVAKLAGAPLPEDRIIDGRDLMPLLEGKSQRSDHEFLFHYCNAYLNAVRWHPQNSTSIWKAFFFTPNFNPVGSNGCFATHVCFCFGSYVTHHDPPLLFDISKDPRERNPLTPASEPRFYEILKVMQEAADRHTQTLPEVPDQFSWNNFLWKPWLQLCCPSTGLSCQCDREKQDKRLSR
Protocol: Human placenta is obtained freshly after delivery and stripped of membranes and connective tissues. For storage, the material is frozen at −70° C. After thawing, all further steps are carried out at 4° C., while pH values are adjusted at 20° C. 400 g of the tissue is homogenized in 1.2 l of buffer A (50 mM Tris-HCl, pH 7.4, 0.25 M sucrose). The homogenate obtained is centrifuged at 10,000×g for 45 minutes. The supernatant is set aside and the pellet obtained is re-homogenized in 500 ml of buffer A. After centrifugation, the two supernatants obtained are combined and subjected to ultracentrifugation (100,000×g, 1 hour). The pellet obtained is resuspended in buffer A and centrifugation is repeated. The pellet obtained is suspended in 50 ml of 50 mM Tris-HCl, pH 7.4 and stored at −20° C. until further work-up. After thawing, microsomes are collected by ultracentrifugation (as described above) and are suspended in 50 ml of buffer B (10 mM Tris-HCl, pH 7.0, 1 mM EDTA, 2 mM 2-mercaptoethanol, 1% Triton X-100, 0.1% aprotinin). After 1 hour on ice with gentle agitation, the suspension is centrifuged (100,000×g, 1 hour). The supernatant containing the enzyme activity is collected and the pH is adjusted to 8.0 with 1 M Tris. […]
Plates are incubated at 37° C. for 1 hour. […] Fluorescence intensity is determined in a Titertek Fluoroskan II instrument with λex=355 nm and λem=460 nm. […]

[3] = first value, column head printed 0 micromol/litre (alignment unclear)
[4] = second value, column head printed 0.1 micromol/litre (alignment unclear)
[5] = third value, column head printed 0.3 micromol/litre (alignment unclear)

| melting point [°C] | SMILES | anti-inflammatory activity (in words) [1] | inhibition in % (auricular weight, inflammatory swelling) [1, 3] [%] | inhibition in % (auricular weight, inflammatory swelling) [1, 4] [%] | inhibition in % (auricular weight, inflammatory swelling) [1, 5] [%] | IC50 [2] [µM] |
| --- | --- | --- | --- | --- | --- | --- |
| – | CC(C)(C)OC(=O)N1CC2CCCCC(C1)C2C(=O)NS(=O)(=O)c1cc(C(F)(F)F)cc(C(F)(F)F)c1 (stereo not shown) [Example 217, 10-(3,5-bis-trifluoromethyl-benzenesulfonylaminocarbonyl)-8-aza-bicyclo[4.3.1]decane-8-carboxylic acid tert-butyl ester] | anti-inflammatory activity | 20 | 36 | 45 | – |
| – | C[C@]12CC[C@@H]3c4ccc(OS(N)(=O)=O)cc4CC[C@H]3[C@@H]1CCC2=O [estrone sulfamate, estrone 3-O-sulfamate] | – | – | – | – | ~0.06 |
| – | CC(C)(C)OC(=O)N1CC2CCCCC(C1)C2C(=O)NS(=O)(=O)c1cc(C(F)(F)F)cc(C(F)(F)F)c1 (stereo not shown) [Example 218] | anti-inflammatory activity | 20 | 36 | 45 | – |
| 268 to 273 | NC(=O)c1ccc(C(F)(F)F)cc1N1CCC(CS(=O)(=O)NC(=O)c2cc(C(F)(F)F)cc(C(F)(F)F)c2)CC1 [Example 379] | – | – | – | – | – |
